Measurements taken from ChEMBL document CHEMBL5625214, “Synthesis of glycyrrhizin analogues as HMGB1 inhibitors and their activity against sepsis in acute kidney injury” (Eur J Med Chem, 2023).
Calls of active or inactive are those of the source. The rule behind the calls is not given here.

Tests used:
[1] = Cytotoxicity against human WI-38 cells assessed as inhibition of cell viability incubated for 24 hrs by MTT assay; assay type: toxicity, cell-based
[2] = Cytotoxicity against rat H9c2 cells assessed as inhibition of cell viability incubated for 24 hrs by MTT assay; assay type: toxicity, cell-based
Huh-7 = assay: Cytotoxicity against human Huh-7 cells assessed as inhibition of cell viability incubated for 24 hrs by MTT assay; assay type: functional, cell-based; settings: Huh-7, 24 h
A549 = assay: Cytotoxicity against human A549 cells assessed as inhibition of cell viability incubated for 24 hrs by MTT assay; assay type: functional, cell-based; settings: A549, 24 h
[3] = Cytotoxicity against human HK-2 cells assessed as inhibition of cell viability incubated for 24 hrs by MTT assay; assay type: toxicity, cell-based
RAW264.7 = assay: Inhibition of NO release in mouse RAW264.7 cells incubated for 24 hrs by Griess reagent based assay; assay type: functional, cell-based; settings: RAW264.7, 24 h
[4] = Cytotoxicity against mouse RAW264.7 cells assessed as cell survival at 30 uM incubated for 24 hrs by MTT assay relative to control; assay type: toxicity, cell-based; settings: read-out: Activity
[5] = Cytotoxicity against mouse RAW264.7 cells assessed as cell survival at 60 uM incubated for 24 hrs by MTT assay relative to control; assay type: toxicity, cell-based; settings: read-out: Activity
Mus musculus [6] = assay: Anti-septic activity in C57BL/6 mouse model assessed as reversal of LPS-induced disappearance of renal internal brush border structure at 30 mg/kg, ip qd treated for 7 days by H and E staining based analysis; assay type: functional, organism-based; settings: time 7.0 day
Mus musculus [7] = assay: Anti-septic activity in C57BL/6 mouse model assessed as reversal of LPS-induced inflammatory cell infiltration in renal interstitium at 30 mg/kg, ip qd treated for 7 days by H and E staining based analysis; assay type: functional, organism-based; settings: time 7.0 day
Mus musculus [8] = assay: Anti-septic activity in C57BL/6 mouse model assessed as reversal of LPS-induced kidney injury at 30 mg/kg, ip qd treated for 7 days by H and E staining based analysis; assay type: functional, organism-based; settings: time 7.0 day
Mus musculus [9] = assay: Anti-septic activity in C57BL/6 mouse model assessed as reversal of LPS-induced damage of renal tubules at 15 to 30 mg/kg, ip qd treated for 7 days by H and E staining based analysis; assay type: functional, organism-based; settings: dose 15-30 mg/kg, time 7.0 day
Mus musculus [10] = assay: Anti-septic activity in C57BL/6 mouse model assessed as reversal of LPS-induced accumulation of interstitial vacoules in kidney at 30 mg/kg, ip qd treated for 7 days by H and E staining based analysis; assay type: functional, organism-based; settings: time 7.0 day
Mus musculus [11] = assay: Anti-septic activity in C57BL/6 mouse model assessed as reversal of LPS-induced inflammatory cell infiltration in renal interstitium at 15 mg/kg, ip qd treated for 7 days by H and E staining based analysis; assay type: functional, organism-based; settings: time 7.0 day
Mus musculus [12] = assay: Anti-septic activity in C57BL/6 mouse model assessed as reversal of LPS-induced kidney injury at 15 mg/kg, ip qd treated for 7 days by H and E staining based analysis; assay type: functional, organism-based; settings: time 7.0 day

IC50 (RAW264.7)	SMILES	IC50 at 24 h [1]	IC50 at 24 h [2]	IC50 (Huh-7)	IC50 (A549)	IC50 at 24 h [3]	viability at 24 h, 30 µM [4]	viability at 24 h, 60 µM [5]	Activity (Mus musculus [6])	Activity (Mus musculus [7])	Activity (Mus musculus [8])	Activity (Mus musculus [9])	Activity (Mus musculus [10])	Activity (Mus musculus [11])	Activity (Mus musculus [12])
46.2 µM	CC(=O)OC[C@@H]1OC(n2cc(COC(=O)[C@@]3(C)CC[C@]4(C)CC[C@]5(C)C(=CC(=O)[C@@H]6[C@@]7(C)CC[C@H](OC(=O)CCc8ccccc8)C(C)(C)C7CC[C@]65C)[C@H]4C3)nn2)[C@@H](OC(C)=O)[C@H]1OC(C)=O (stereo partly specified)	348 µM	330 µM	91.3 µM	92.8 µM	557 µM	> 70%	< 70%							
20.7 µM	CC1(C)[C@@H](O[C@H]2O[C@H](C(=O)O)[C@@H](O)[C@H](O)[C@H]2O[C@@H]2O[C@H](C(=O)O)[C@@H](O)[C@H](O)[C@H]2O)CC[C@]2(C)[C@H]3C(=O)C=C4[C@@H]5C[C@@](C)(C(=O)O)CC[C@]5(C)CC[C@@]4(C)[C@]3(C)CC[C@@H]12 [GLYCYRRHIZIN]	128 µM	102 µM	65.7 µM	80.3 µM	160 µM	> 70%		Active	Active	Active	Active	Active	inactive	inactive
30.7 µM	CC(=O)OC[C@@H]1OC(n2cc(COC(=O)[C@@]3(C)CC[C@]4(C)CC[C@]5(C)C(=CC(=O)[C@@H]6[C@@]7(C)CC[C@H](OC(=O)CCc8ccccc8)C(C)(C)C7CC[C@]65C)[C@H]4C3)nn2)[C@@H](OC(C)=O)[C@H](OC(C)=O)[C@H]1OC(C)=O (stereo partly specified)	> 800 µM	294 µM	206 µM	207 µM	398 µM	> 70%								
30.8 µM	CC(=O)O[C@H]1[C@H](C)OC(n2cc(COC(=O)[C@@]3(C)CC[C@]4(C)CC[C@]5(C)C(=CC(=O)[C@@H]6[C@@]7(C)CC[C@H](OC(=O)CCc8ccccc8)C(C)(C)C7CC[C@]65C)[C@H]4C3)nn2)C[C@@H]1OC(C)=O (stereo partly specified)	> 800 µM	406 µM	112 µM	100 µM	> 800 µM	> 70%	< 70%							

The remaining lines, values behind:

SMILES	IC50 (RAW264.7)	IC50 at 24 h [1]	IC50 at 24 h [2]	IC50 (Huh-7)	IC50 (A549)	IC50 at 24 h [3]	viability at 24 h, 30 µM [4]	viability at 24 h, 60 µM [5]	Activity (Mus musculus [6])	Activity (Mus musculus [7])	Activity (Mus musculus [8])	Activity (Mus musculus [9])	Activity (Mus musculus [10])	Activity (Mus musculus [11])	Activity (Mus musculus [12])
COC(=O)[C@@]1(C)CC[C@]2(C)CC[C@]3(C)C(=CC(=O)[C@@H]4[C@@]5(C)CC[C@H](OCc6cn(C7O[C@H](COC(C)=O)[C@H](OC(C)=O)[C@H](OC(C)=O)[C@H]7OC(C)=O)nn6)C(C)(C)C5CC[C@]43C)[C@H]2C1 (stereo partly specified)		96.4 µM	92.4 µM	28 µM	39.4 µM	42.2 µM									
COC(=O)[C@@]1(C)CC[C@]2(C)CC[C@]3(C)C(=CC(=O)[C@@H]4[C@@]5(C)CC[C@H](OCc6cn(C7O[C@H](COC(C)=O)[C@@H](OC(C)=O)[C@H]7OC(C)=O)nn6)C(C)(C)C5CC[C@]43C)[C@H]2C1 (stereo partly specified)		93.9 µM	77 µM	30.1 µM	27.8 µM	59.7 µM									
CC(=O)OC[C@@H]1OC(n2cc(COC(=O)[C@@]3(C)CC[C@]4(C)CC[C@]5(C)C(=CC(=O)[C@@H]6[C@@]7(C)CC[C@H](OC(=O)CCc8ccccc8)C(C)(C)C7CC[C@]65C)[C@H]4C3)nn2)[C@H](OC(C)=O)[C@H](OC(C)=O)[C@@H]1OC(C)=O (stereo partly specified)	40.8 µM	590 µM	> 800 µM	174 µM	108 µM	> 800 µM	> 70%								
COC(=O)[C@@]1(C)CC[C@]2(C)CC[C@]3(C)C(=CC(=O)[C@@H]4[C@@]5(C)CC[C@H](OCc6cn(C7O[C@H](COC(C)=O)[C@@H](OC(C)=O)[C@H](OC(C)=O)[C@@H]7OC(C)=O)nn6)C(C)(C)C5CC[C@]43C)[C@H]2C1 (stereo partly specified)		89.4 µM	65.3 µM	19.7 µM	23.1 µM	57.2 µM									
CC(=O)OC[C@@H]1OC(n2cc(COC(=O)[C@@]3(C)CC[C@]4(C)CC[C@]5(C)C(=CC(=O)[C@@H]6[C@@]7(C)CC[C@H](OC(=O)CCc8ccccc8)C(C)(C)C7CC[C@]65C)[C@H]4C3)nn2)[C@@H](OC(C)=O)[C@H](OC(C)=O)[C@@H]1OC(C)=O (stereo partly specified)	22.8 µM	201 µM	114 µM	86.2 µM	93.4 µM	127 µM		< 70%							
COC(=O)[C@@]1(C)CC[C@]2(C)CC[C@]3(C)C(=CC(=O)[C@@H]4[C@@]5(C)CC[C@H](OCc6cn(C7O[C@H](COC(C)=O)[C@@H](OC(C)=O)[C@H](OC(C)=O)[C@H]7OC(C)=O)nn6)C(C)(C)C5CC[C@]43C)[C@H]2C1 (stereo partly specified)		105 µM	87.8 µM	23.5 µM	32.7 µM	56.1 µM									
